Where a name gives a salt, the structure may show the parent alone.
Legend:
MFP-2 = target: T1, MFP-2 (Rattus norvegicus, UniProt P97852); experiment: Binding experiments: compound-immobilized resins with rat brain lysate, SDS-PAGE and MALDI-TOF identification; settings: first vs second binding experiment with fresh resin, SDS gel
T1 construct: The supernatant thus obtained was used as the lysate; from tissue; host or cells: rat brain
T1 sequence (P97852 1-735): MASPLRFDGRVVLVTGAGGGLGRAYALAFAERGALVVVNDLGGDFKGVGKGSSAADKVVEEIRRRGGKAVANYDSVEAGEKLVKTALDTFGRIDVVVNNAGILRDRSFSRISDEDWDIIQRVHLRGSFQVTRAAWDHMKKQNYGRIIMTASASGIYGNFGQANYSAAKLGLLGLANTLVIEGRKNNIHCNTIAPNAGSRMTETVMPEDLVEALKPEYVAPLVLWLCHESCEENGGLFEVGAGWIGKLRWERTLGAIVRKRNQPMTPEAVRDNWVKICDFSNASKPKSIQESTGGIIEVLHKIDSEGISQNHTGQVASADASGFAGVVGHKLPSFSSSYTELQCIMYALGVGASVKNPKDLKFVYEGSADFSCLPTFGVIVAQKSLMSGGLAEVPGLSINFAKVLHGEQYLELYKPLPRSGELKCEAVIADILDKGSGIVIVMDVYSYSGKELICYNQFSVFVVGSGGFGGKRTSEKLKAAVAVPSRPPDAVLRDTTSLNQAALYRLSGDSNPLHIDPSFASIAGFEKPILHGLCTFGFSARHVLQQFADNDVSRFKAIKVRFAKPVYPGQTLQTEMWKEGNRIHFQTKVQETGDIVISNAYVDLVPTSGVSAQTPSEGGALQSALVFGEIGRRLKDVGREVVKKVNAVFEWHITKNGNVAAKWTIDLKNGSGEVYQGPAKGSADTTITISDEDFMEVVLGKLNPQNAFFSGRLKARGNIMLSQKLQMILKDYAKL
Method: The rat brain (2.4 g) was mixed in a mixed solution A (25 mM Tris-HCl pH 8.0, 0.5% Tween 20, 300 μM DCC (24 ml; N,N-diethyldithiocarbamate sodium)) and prepared as a homogenate, which was then centrifuged at 9,000 rpm for 10 minutes. The centrifugal supernatant was collected and further centrifuged at 50,000 rpm for 30 minutes. The supernatant thus obtained was used as the lysate. Note that all experiments were performed at 4° C. or on ice.
Binding experiments were performed using the immobilizing resins with each test compound immobilized thereon, prepared in Examples 1 to 2, and the rat brain lysate prepared in Example 3(1), per the procedures shown below.
Each resin (10 μl) and lysate (1 ml) were gently shaken at 4° C. for about 1 hour. Thereafter, centrifugal operation was performed, and each supernatant was collected carefully. Then, each supernatant was again mixed with a fresh compound-bound resin (10 μl). At this time, the separated compound-bound resin was gently stored at 4° C. as the resin of the first binding experiment. After the mixture was gently stirred for about 1 hour, centrifugal operation was performed, and the supernatant was removed. […] The sample solution thus obtained was separated using a commercially available SDS gel (BioRad readyGel J, 10% SDS, cat. NO=161-J341), and the SDS gel was analyzed (FIG. 2). […]

recombinant MFP-2 = target: T2, recombinant MFP-2 (Homo sapiens, UniProt P51659); experiment: Measurement of Kd value between MFP-2 and Intal using Biacore; type: binding; settings: Biacore 3000; Intal-immobilized gold chip; MFP-2 25, 12.5 and 6.25 nM; global fitting
T2 construct: His-tag (N); made in house; host or cells: E. coli (pDEST17, GATEWAY system)
T2 sequence (P51659 1-736): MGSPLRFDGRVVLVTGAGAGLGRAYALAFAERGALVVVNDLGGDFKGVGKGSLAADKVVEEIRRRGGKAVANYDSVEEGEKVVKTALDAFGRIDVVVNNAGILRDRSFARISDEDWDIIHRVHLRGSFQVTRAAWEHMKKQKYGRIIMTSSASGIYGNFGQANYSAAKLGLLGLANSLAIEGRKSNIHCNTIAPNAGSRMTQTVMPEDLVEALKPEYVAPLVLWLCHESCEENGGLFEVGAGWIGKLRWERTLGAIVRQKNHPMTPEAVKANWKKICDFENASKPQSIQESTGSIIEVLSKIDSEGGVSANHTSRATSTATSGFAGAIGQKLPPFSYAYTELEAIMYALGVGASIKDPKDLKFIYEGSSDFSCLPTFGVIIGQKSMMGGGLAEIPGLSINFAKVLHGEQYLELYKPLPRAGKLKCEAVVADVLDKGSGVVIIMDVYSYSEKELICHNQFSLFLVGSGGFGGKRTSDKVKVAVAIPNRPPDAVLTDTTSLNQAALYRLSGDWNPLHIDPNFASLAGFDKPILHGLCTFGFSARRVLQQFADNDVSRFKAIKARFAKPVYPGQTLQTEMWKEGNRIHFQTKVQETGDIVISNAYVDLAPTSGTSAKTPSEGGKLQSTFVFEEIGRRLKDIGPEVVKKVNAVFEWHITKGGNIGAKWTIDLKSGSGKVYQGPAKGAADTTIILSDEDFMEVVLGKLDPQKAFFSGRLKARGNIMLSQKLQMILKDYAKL
Method: The SIA kit Au from Biacore Company (#BR-1004-05) was immersed in Piranha solution (25% H2O2, 75% H2SO4) in a glass dish, and washed with shaking for 3 hours. Next, this chip was washed with Milli-Q Water and ethanol, and allowed to stand overnight as immersed in an ethanol solution (1.5 mM) of 11-amino-1-undecanethiol hydrochloride (Dojindo, #A423). After this was washed with N-methylpyrrolidone (NMP), it was placed in an NMP solution containing N-Fmoc-amido-dPEG4™-acid (50 mM), PyBop (50 mM) and diisopropylethylamine (Pr2Net; 100 mM) and shaken for 16 hours to cause the reaction. After the mixture was washed with NMP, the reaction was allowed to proceed in an acetonitrile (MeCN) solution containing acetic acid (10 mM), HOBt (10 mM) and WSCI (water-soluble carbodiimide; 10 mM) for 5.5 hours. […]
An entry vector was prepared using the GATEWAY system from Invitrogen Company, and recombinant MFP-2 was expressed as a protein with N-terminal His-tag using an E. coli expression system (pDEST17). […]
The Kd value was measured using Biacore 3000. […]
After data were measured, differences from the control were determined using analytical software (BIACORE Company, BIA evaluation ver 4.1) and analyzed by global fitting to calculate the Kd value. As a result, the value was determined to be 0.64 nM.

Row | binding of MFP-2 to the compound-immobilized resin (MFP-2) | Kd (recombinant MFP-2) [nM] | Compound
1 | specific binding | 0.64 | O=C(O)c1cc(=O)c2c(OCC(O)COc3cccc4oc(C(=O)O)cc(=O)c34)cccc2o1 [Intal, disodium salt of 1,3-bis(2-carboxychromon-5-yloxy)-2-hydroxypropane]
2 | specific binding | – | O=C(Cn1c(=O)sc2ccc(Cl)cc21)N1CCN(CCO)CC1 [tiaramide]

Reference: patent US20090239916A1, “NOVEL DRUG DISCOVERY TARGET AND MEDICINE ACTING ON THE SAME” (Reverse Proteomics Research Institute Co., Ltd, priority 2004, published 2009)
